From ChEMBL document CHEMBL5244269, “Improving metabolic stability and removing aldehyde oxidase liability in a 5-azaquinazoline series of IRAK4 inhibitors” (Bioorg Med Chem, 2020)

Experiments:
Type in all cases: functional
SUD4 [1] = assay: Growth inhibition of human SU-DHL-4 cells at 1.7 uM incubated for 3 days in presence of 0.017 uM acalabrutinib relative to control; settings: SU-DHL-4, 72 h, time 3 day, read-out: GI
SUD4 [2] = assay: Growth inhibition of human SU-DHL-4 cells at 0.33 uM incubated for 3 days in presence of 0.33 uM acalabrutinib relative to control; settings: SU-DHL-4, 72 h, time 3 day, read-out: GI
SUD4 [3] = assay: Growth inhibition of human SU-DHL-4 cells at 0.33 uM incubated for 3 days in presence of 0.17 uM acalabrutinib relative to control; settings: SU-DHL-4, 72 h, time 3 day, read-out: GI
SUD4 [4] = assay: Growth inhibition of human SU-DHL-4 cells at 0.33 uM incubated for 3 days in presence of 0.017 uM acalabrutinib relative to control; settings: SU-DHL-4, 72 h, time 3 day, read-out: GI
SUD4 [5] = assay: Growth inhibition of human SU-DHL-4 cells at 0.17 uM incubated for 3 days in presence of 0.33 uM acalabrutinib relative to control; settings: SU-DHL-4, 72 h, time 3 day, read-out: GI
SUD4 [6] = assay: Growth inhibition of human SU-DHL-4 cells at 0.33 uM incubated for 3 days in presence of 0.003 uM acalabrutinib relative to control; settings: SU-DHL-4, 72 h, time 3 day, read-out: GI
SUD4 [7] = assay: Growth inhibition of human SU-DHL-4 cells at 0.17 uM incubated for 3 days in presence of 0.17 uM acalabrutinib relative to control; settings: SU-DHL-4, 72 h, time 3 day, read-out: GI
SUD4 [8] = assay: Growth inhibition of human SU-DHL-4 cells at 0.17 uM incubated for 3 days in presence of 0.033 uM acalabrutinib relative to control; settings: SU-DHL-4, 72 h, time 3 day, read-out: GI
SUD4 [9] = assay: Growth inhibition of human SU-DHL-4 cells at 0.17 uM incubated for 3 days in presence of 0.017 uM acalabrutinib relative to control; settings: SU-DHL-4, 72 h, time 3 day, read-out: GI
SUD4 [10] = assay: Growth inhibition of human SU-DHL-4 cells at 0.17 uM incubated for 3 days in presence of 0.003 uM acalabrutinib relative to control; settings: SU-DHL-4, 72 h, time 3 day, read-out: GI
OCI-Ly10 [11] = assay: Growth inhibition of human OCILY10 cells at 0.17 uM incubated for 3 days in presence of 0.003 uM acalabrutinib relative to control; settings: OCI-Ly10, 72 h, time 3 day, read-out: GI
OCI-Ly10 [12] = assay: Growth inhibition of human OCILY10 cells at 0.17 uM incubated for 3 days in presence of 0.017 uM acalabrutinib relative to control; settings: OCI-Ly10, 72 h, time 3 day, read-out: GI
OCI-Ly10 [13] = assay: Growth inhibition of human OCILY10 cells at 0.17 uM incubated for 3 days in presence of 0.033 uM acalabrutinib relative to control; settings: OCI-Ly10, 72 h, time 3 day, read-out: GI
OCI-Ly10 [14] = assay: Growth inhibition of human OCILY10 cells at 0.17 uM incubated for 3 days in presence of 0.17 uM acalabrutinib relative to control; settings: OCI-Ly10, 72 h, time 3 day, read-out: GI
OCI-Ly10 [15] = assay: Growth inhibition of human OCILY10 cells at 0.17 uM incubated for 3 days in presence of 0.33 uM acalabrutinib relative to control; settings: OCI-Ly10, 72 h, time 3 day, read-out: GI
OCI-Ly10 [16] = assay: Growth inhibition of human OCILY10 cells at 0.33 uM incubated for 3 days in presence of 0.003 uM acalabrutinib relative to control; settings: OCI-Ly10, 72 h, time 3 day, read-out: GI
OCI-Ly10 [17] = assay: Growth inhibition of human OCILY10 cells at 0.33 uM incubated for 3 days in presence of 0.017 uM acalabrutinib relative to control; settings: OCI-Ly10, 72 h, time 3 day, read-out: GI
OCI-Ly10 [18] = assay: Growth inhibition of human OCILY10 cells at 0.33 uM incubated for 3 days in presence of 0.033 uM acalabrutinib relative to control; settings: OCI-Ly10, 72 h, time 3 day, read-out: GI
OCI-Ly10 [19] = assay: Growth inhibition of human OCILY10 cells at 0.33 uM incubated for 3 days in presence of 0.17 uM acalabrutinib relative to control; settings: OCI-Ly10, 72 h, time 3 day, read-out: GI
OCI-Ly10 [20] = assay: Growth inhibition of human OCILY10 cells at 0.33 uM incubated for 3 days in presence of 0.33 uM acalabrutinib relative to control; settings: OCI-Ly10, 72 h, time 3 day, read-out: GI
OCI-Ly10 [21] = assay: Growth inhibition of human OCILY10 cells at 1.7 uM incubated for 3 days in presence of 0.003 uM acalabrutinib relative to control; settings: OCI-Ly10, 72 h, time 3 day, read-out: GI
OCI-Ly10 [22] = assay: Growth inhibition of human OCILY10 cells at 1.7 uM incubated for 3 days in presence of 0.017 uM acalabrutinib relative to control; settings: OCI-Ly10, 72 h, time 3 day, read-out: GI
OCI-Ly10 [23] = assay: Growth inhibition of human OCILY10 cells at 1.7 uM incubated for 3 days in presence of 0.033 uM acalabrutinib relative to control; settings: OCI-Ly10, 72 h, time 3 day, read-out: GI
OCI-Ly10 [24] = assay: Growth inhibition of human OCILY10 cells at 1.7 uM incubated for 3 days in presence of 0.17 uM acalabrutinib relative to control; settings: OCI-Ly10, 72 h, time 3 day, read-out: GI
OCI-Ly10 [25] = assay: Growth inhibition of human OCILY10 cells at 1.7 uM incubated for 3 days in presence of 0.33 uM acalabrutinib relative to control; settings: OCI-Ly10, 72 h, time 3 day, read-out: GI
OCI-Ly10 [26] = assay: Growth inhibition of human OCILY10 cells at 3.3 uM incubated for 3 days in presence of 0.003 uM acalabrutinib relative to control; settings: OCI-Ly10, 72 h, time 3 day, read-out: GI
OCI-Ly10 [27] = assay: Growth inhibition of human OCILY10 cells at 3.3 uM incubated for 3 days in presence of 0.17 uM acalabrutinib relative to control; settings: OCI-Ly10, 72 h, time 3 day, read-out: GI
OCI-Ly10 [28] = assay: Growth inhibition of human OCILY10 cells at 3.3 uM incubated for 3 days in presence of 0.33 uM acalabrutinib relative to control; settings: OCI-Ly10, 72 h, time 3 day, read-out: GI
OCI-Ly10 [29] = assay: Growth inhibition of human OCILY10 cells at 10 uM incubated for 3 days in presence of 0.003 uM acalabrutinib relative to control; settings: OCI-Ly10, 72 h, time 3 day, read-out: GI
OCI-Ly10 [30] = assay: Growth inhibition of human OCILY10 cells at 10 uM incubated for 3 days in presence of 0.017 uM acalabrutinib relative to control; settings: OCI-Ly10, 72 h, time 3 day, read-out: GI
OCI-Ly10 [31] = assay: Growth inhibition of human OCILY10 cells at 10 uM incubated for 3 days in presence of 0.033 uM acalabrutinib relative to control; settings: OCI-Ly10, 72 h, time 3 day, read-out: GI
OCI-Ly10 [32] = assay: Growth inhibition of human OCILY10 cells at 10 uM incubated for 3 days in presence of 0.17 uM acalabrutinib relative to control; settings: OCI-Ly10, 72 h, time 3 day, read-out: GI
SUD4 [33] = assay: Growth inhibition of human SU-DHL-4 cells at 1.7 uM incubated for 3 days in presence of 0.17 uM acalabrutinib relative to control; settings: SU-DHL-4, 72 h, time 3 day, read-out: GI
SUD4 [34] = assay: Growth inhibition of human SU-DHL-4 cells at 1.7 uM incubated for 3 days in presence of 0.33 uM acalabrutinib relative to control; settings: SU-DHL-4, 72 h, time 3 day, read-out: GI
SUD4 [35] = assay: Growth inhibition of human SU-DHL-4 cells at 3.3 uM incubated for 3 days in presence of 0.003 uM acalabrutinib relative to control; settings: SU-DHL-4, 72 h, time 3 day, read-out: GI
SUD4 [36] = assay: Growth inhibition of human SU-DHL-4 cells at 3.3 uM incubated for 3 days in presence of 0.017 uM acalabrutinib relative to control; settings: SU-DHL-4, 72 h, time 3 day, read-out: GI
SUD4 [37] = assay: Growth inhibition of human SU-DHL-4 cells at 3.3 uM incubated for 3 days in presence of 0.17 uM acalabrutinib relative to control; settings: SU-DHL-4, 72 h, time 3 day, read-out: GI
SUD4 [38] = assay: Growth inhibition of human SU-DHL-4 cells at 3.3 uM incubated for 3 days in presence of 0.33 uM acalabrutinib relative to control; settings: SU-DHL-4, 72 h, time 3 day, read-out: GI
SUD4 [39] = assay: Growth inhibition of human SU-DHL-4 cells at 10 uM incubated for 3 days in presence of 0.017 uM acalabrutinib relative to control; settings: SU-DHL-4, 72 h, time 3 day, read-out: GI
SUD4 [40] = assay: Growth inhibition of human SU-DHL-4 cells at 10 uM incubated for 3 days in presence of 0.033 uM acalabrutinib relative to control; settings: SU-DHL-4, 72 h, time 3 day, read-out: GI
SUD4 [41] = assay: Growth inhibition of human SU-DHL-4 cells at 10 uM incubated for 3 days in presence of 0.33 uM acalabrutinib relative to control; settings: SU-DHL-4, 72 h, time 3 day, read-out: GI

## Cc1ncc(-c2nc3c(OC4(C)CC4)nc(Nc4cnn(C5CCN(C)CC5)c4)nc3cc2F)cn1
SUD4 [1]
  inhibition of growth at 1.7 µM: 0%
SUD4 [2]
  inhibition of growth at 0.33 µM: -1%
SUD4 [3]
  inhibition of growth at 0.33 µM: -2%
SUD4 [4]
  inhibition of growth at 0.33 µM: 1%
SUD4 [5]
  inhibition of growth at 0.17 µM: -2%
SUD4 [6]
  inhibition of growth at 0.33 µM: 0%
SUD4 [7]
  inhibition of growth at 0.17 µM: -3%
SUD4 [8]
  inhibition of growth at 0.17 µM: -4%
SUD4 [9]
  inhibition of growth at 0.17 µM: 0%
SUD4 [10]
  inhibition of growth at 0.17 µM: -1%
OCI-Ly10 [11]
  inhibition of growth at 0.17 µM: 24%
OCI-Ly10 [12]
  inhibition of growth at 0.17 µM: 92%
OCI-Ly10 [13]
  inhibition of growth at 0.17 µM: 117%
OCI-Ly10 [14]
  inhibition of growth at 0.17 µM: 147%
OCI-Ly10 [15]
  inhibition of growth at 0.17 µM: 138%
OCI-Ly10 [16]
  inhibition of growth at 0.33 µM: 33%
OCI-Ly10 [17]
  inhibition of growth at 0.33 µM: 122%
OCI-Ly10 [18]
  inhibition of growth at 0.33 µM: 155%
OCI-Ly10 [19]
  inhibition of growth at 0.33 µM: 169%
OCI-Ly10 [20]
  inhibition of growth at 0.33 µM: 172%
OCI-Ly10 [21]
  inhibition of growth at 1.7 µM: 93%
OCI-Ly10 [22]
  inhibition of growth at 1.7 µM: 188%
OCI-Ly10 [23]
  inhibition of growth at 1.7 µM: 193%
OCI-Ly10 [24]
  inhibition of growth at 1.7 µM: 190%
OCI-Ly10 [25]
  inhibition of growth at 1.7 µM: 193%
OCI-Ly10 [26]
  inhibition of growth at 3.3 µM: 156%
OCI-Ly10 [27]
  inhibition of growth at 3.3 µM: 194%
OCI-Ly10 [28]
  inhibition of growth at 3.3 µM: 194%
OCI-Ly10 [29]
  inhibition of growth at 10 µM: 195%
OCI-Ly10 [30]
  inhibition of growth at 10 µM: 198%
OCI-Ly10 [31]
  inhibition of growth at 10 µM: 197%
OCI-Ly10 [32]
  inhibition of growth at 10 µM: 199%
SUD4 [33]
  inhibition of growth at 1.7 µM: -3%
SUD4 [34]
  inhibition of growth at 1.7 µM: -2%
SUD4 [35]
  inhibition of growth at 3.3 µM: -1%
SUD4 [36]
  inhibition of growth at 3.3 µM: 0%
SUD4 [37]
  inhibition of growth at 3.3 µM: -3%
SUD4 [38]
  inhibition of growth at 3.3 µM: -2%
SUD4 [39]
  inhibition of growth at 10 µM: 2%
SUD4 [40]
  inhibition of growth at 10 µM: -2%
SUD4 [41]
  inhibition of growth at 10 µM: 0%
